Assay results as given in patent US9957251B2 (Takeda Pharmaceutical Company Limited, priority 2014, dated 2018).

Legend:
[1] = molecular target: T1, CDK19 (CDC2L6/CycC) (Homo sapiens, UniProt Q9BWU1); test: CDK19 inhibitory activity (TR-FRET, Kinase Tracer-236 displacement); type: binding; conditions: 1 μM of the test compound; for inhibition at 1 µM: read-out: Percent inhibition of CDK19 activity (%); for Percent inhibition of CDK19 activity (%): 1 µM
T1 construct: purchased Carna Biosciences
Protocol: (§1) The compound of the present invention was evaluated for its CDK8 inhibitory activity and CDK19 inhibitory activity by the following method. […] The primary diluted solution was dispensed in the amount of 2 μL/well to a 384-well plate, and then, a mixed solution of Eu^3+ Cryptate conjugated mouse monoclonal antibody anti-glutathione S-transferase (Cisbio) diluted 267-fold with an assay buffer and 60 nM Kinase Tracer-236 (Life technologies) was added thereto at 2 μL/well. After the addition, each kinase solution (84 ng/mL CDK8/CycC (Carna Biosciences) diluted with an assay buffer used for CDK8 inhibitory activity measurement, and 87 ng/mL CDC2L6/CycC (Carna Biosciences) diluted with an assay buffer used for CDK19 inhibitory activity measurement) was further added thereto at 2 μL/well. After the addition, the plate was left standing at room temperature for 1 hour, and then, the fluorescence intensity (excitation wavelength 320 nm, fluorescence wavelength 615 nm, 665 nm, delay time 50 μsec) was measured using an EnVision plate reader (PerkinElmer).

[2] = molecular target: T2, CDK8/CycC (Homo sapiens, UniProt P49336); test: CDK8 inhibitory activity (TR-FRET, Kinase Tracer-236 displacement); type: binding; conditions: 1 μM of the test compound; for inhibition at 1 µM: read-out: Percent inhibition of CDK8 activity (%); for Percent inhibition of CDK8 activity (%): 1 µM
T2 construct: purchased Carna Biosciences
Protocol: as §1

[3] = system: human multiple myeloma RPMI8226 cells; test: Inhibitory activity against human multiple myeloma RPMI8226 cell growth (CellTiter-Glo); type: cell-based; conditions: 1 μM of the test compound, cultured for 8 days; for inhibition at 1 µM: Homo sapiens, RPMI-8226, 192 h, read-out: Percent inhibition of RPMI8226 cell growth (%); for Percent inhibition of RPMI8226 cell growth (%): 1 µM
Protocol: The compound of the present invention was evaluated for its inhibitory activity against human multiple myeloma RPMI8226 cell growth by the following method.
A suspension of human multiple myeloma RPMI8226 cells (purchased from the Health Protection Agency) was inoculated at 40 μL (300 cells/well) to a 384-well plate and cultured at 37° C. for 1 day in a 5% CO2 incubator. After the culture, each test compound solution was added thereto at a test concentration of 1 μM using TECAN D300, and the cells were further cultured for 8 days. After the culture, CellTiter-Glo™ Luminescent Cell Viability Assay reagent (Promega) was added at 40 μL/well to a 384-well plate, and the amount of luminescence was measured using a luminometer. Inhibitory activity against human multiple myeloma RPMI8226 cell growth (percent inhibition (%)) of the test compound was calculated according to the following formula, which is based on the hypothesis that the amount of residual ATP reflects the number of cells. In this formula, 100% control represents the amount of luminescence from a well with only 0.1% DMSO added. Percent inhibition (%)=(1−(amount of luminescence of the test compound)÷(100% control))×100

T2 sequence (P49336 whole entry): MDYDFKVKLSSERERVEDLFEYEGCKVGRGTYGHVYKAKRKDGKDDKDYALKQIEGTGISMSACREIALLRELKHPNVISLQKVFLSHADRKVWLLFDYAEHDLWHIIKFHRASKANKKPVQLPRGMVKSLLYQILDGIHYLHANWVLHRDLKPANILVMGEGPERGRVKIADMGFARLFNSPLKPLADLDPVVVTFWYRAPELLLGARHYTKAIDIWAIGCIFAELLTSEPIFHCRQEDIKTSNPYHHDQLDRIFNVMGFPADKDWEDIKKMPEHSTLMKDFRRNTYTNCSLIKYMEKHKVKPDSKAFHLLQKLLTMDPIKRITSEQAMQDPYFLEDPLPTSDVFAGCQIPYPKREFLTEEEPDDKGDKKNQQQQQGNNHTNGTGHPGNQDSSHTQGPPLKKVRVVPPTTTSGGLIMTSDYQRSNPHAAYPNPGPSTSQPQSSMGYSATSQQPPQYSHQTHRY
T2 sequence (P24863 whole entry partner): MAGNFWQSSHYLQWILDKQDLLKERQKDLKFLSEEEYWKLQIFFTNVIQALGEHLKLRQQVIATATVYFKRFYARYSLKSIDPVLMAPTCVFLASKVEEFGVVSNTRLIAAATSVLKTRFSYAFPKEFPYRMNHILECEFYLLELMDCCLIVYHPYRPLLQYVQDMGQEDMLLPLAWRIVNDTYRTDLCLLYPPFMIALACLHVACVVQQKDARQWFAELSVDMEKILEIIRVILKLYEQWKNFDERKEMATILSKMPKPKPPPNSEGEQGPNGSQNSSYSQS
T1 sequence (Q9BWU1 whole entry): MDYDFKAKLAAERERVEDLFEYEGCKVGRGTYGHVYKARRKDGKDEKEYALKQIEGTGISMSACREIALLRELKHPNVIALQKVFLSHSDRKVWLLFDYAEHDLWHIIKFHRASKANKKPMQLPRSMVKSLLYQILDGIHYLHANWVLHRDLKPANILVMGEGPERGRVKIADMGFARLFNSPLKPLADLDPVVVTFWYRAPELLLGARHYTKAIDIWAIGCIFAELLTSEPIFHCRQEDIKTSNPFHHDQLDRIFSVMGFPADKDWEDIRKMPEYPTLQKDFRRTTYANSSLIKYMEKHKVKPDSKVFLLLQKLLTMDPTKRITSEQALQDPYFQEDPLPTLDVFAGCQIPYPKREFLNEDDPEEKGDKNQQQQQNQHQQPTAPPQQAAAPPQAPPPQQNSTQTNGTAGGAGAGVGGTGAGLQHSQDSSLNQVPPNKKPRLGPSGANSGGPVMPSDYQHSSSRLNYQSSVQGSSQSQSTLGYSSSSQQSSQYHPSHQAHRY
T1 sequence (P24863 whole entry partner): as the sequence (P24863 whole entry partner) above

SMILES	inhibition at 1 µM [1]	inhibition at 1 µM [2]	inhibition at 1 µM [3]	Percent inhibition of CDK19 activity (%) [1]	Percent inhibition of CDK8 activity (%) [2]	Percent inhibition of RPMI8226 cell growth (%) [3]
Cn1cc(-c2ccncc2/C=C/C(=O)Nc2ccc(CN3CCC4(CC3)COC4)cc2)cn1 [Example 84, (2E)-3-(4-(1-methyl-1H-pyrazol-4-yl)pyridin-3-yl)-N-(4-(2-oxa-7-azaspiro[3.5]non-7-ylmethyl)phenyl)acrylamide]	97%	97%	60%			
O=C(/C=C/c1cnccc1-c1cnn(C2CC2)c1)Nc1ccc(CN2CC(F)(F)C2)cc1 [Example 377, (2E)-3-(4-(1-Cyclopropyl-1H-pyrazol-4-yl)pyridin-3-yl)-N-(4-((3,3-difluoroazetidin-1-yl)methyl)phenyl)acrylamide hemisuccinate]				100%	102%	66%
Cn1ccc2cc(NC(=O)/C=C/c3cnccc3-c3cnn(C4CC4)c3)ccc21 [Example 251, (2E)-3-(4-(1-Cyclopropyl-1H-pyrazol-4-yl)pyridin-3-yl)-N-(1-methyl-1H-indol-5-yl)acrylamide]	97%	100%	61%			
Cn1cc(-c2ccncc2/C=C/C(=O)Nc2ccc3cnccc3c2)cn1 [Example 154, (2E)-N-(isoquinolin-6-yl)-3-(4-(1-methyl-1H-pyrazol-4-yl)pyridin-3-yl)acrylamide]	99%	96%	62%			
O=C(/C=C/c1cnccc1-c1cnsc1)Nc1ccc(CN2CCOCC2)cc1 [Example 145, (2E)-N-(4-(Morpholin-4-ylmethyl)phenyl)-3-(4-(1,2-thiazol-4-yl)pyridin-3-yl)acrylamide]	94%	90%	51%			
Cn1cnc2ccc(-c3ccncc3/C=C/C(=O)Nc3ccc4c(ccn4CC(F)(F)F)c3)cc21 [Example 298, (2E)-3-(4-(1-methyl-1H-benzimidazol-6-yl)pyridin-3-yl)-N-(1-(2,2,2-trifluoroethyl)-1H-indol-5-yl)acrylamide]	84%	85%	63%			
Cc1noc(C)c1-c1ccc(NC(=O)/C=C/c2cnccc2-c2cnn(C3CC3)c2)c(F)c1 [Example 311, (2E)-3-(4-(1-cyclopropyl-1H-pyrazol-4-yl)pyridin-3-yl)-N-(4-(3,5-dimethyl-1,2-oxazol-4-yl)-2-fluorophenyl)acrylamide]	98%	103%	58%			
Cn1cc(-c2ccncc2/C=C/C(=O)Nc2ccc(CN3CCOCC3)c(Cl)c2)cn1 [Example 42, (2E)-N-(3-Chloro-4-(morpholin-4-ylmethyl)phenyl)-3-(4-(1-methyl-1H-pyrazol-4-yl)pyridin-3-yl)acrylamide]	99%	99%	53%			
CN(C)CCOc1ccc(NC(=O)/C=C/c2cnccc2-c2cnn(C)c2)cc1 [Example 252, (2E)-N-(4-(2-(dimethylamino)ethoxy)phenyl)-3-(4-(1-methyl-1H-pyrazol-4-yl)pyridin-3-yl)acrylamide]	93%	99%	60%			
O=C(/C=C/c1cnccc1-c1cnn(C2CC2)c1)Nc1ccc(CN2CC(F)(F)C2)cc1 [Example 374, (2E)-3-(4-(1-Cyclopropyl-1H-pyrazol-4-yl)pyridin-3-yl)-N-(4-((3,3-difluoroazetidin-1-yl)methyl)phenyl)acrylamide diphosphate]				100%	100%	69%
O=C(/C=C/c1cnccc1-c1cnn(Cc2ccccc2)c1)Nc1ccc(CN2CCOCC2)cc1 [Example 93, (2E)-3-(4-(1-benzyl-1H-pyrazol-4-yl)pyridin-3-yl)-N-(4-(morpholin-4-ylmethyl)phenyl)acrylamide]	101%	101%	63%			
CC(c1ccc(NC(=O)/C=C/c2cnccc2-c2cnn(C)c2)cc1)N1CCOCC1 (stereo not drawn) [Example 43, (2E)-3-(4-(1-methyl-1H-pyrazol-4-yl)pyridin-3-yl)-N-(4-(1-(morpholin-4-yl)ethyl)phenyl)acrylamide]	98%	96%	57%			
CC(C)(O)Cc1ccc(NC(=O)/C=C/c2cnccc2-c2cnn(C3CC3)c2)cc1 [Example 143, (2E)-3-(4-(1-cyclopropyl-1H-pyrazol-4-yl)pyridin-3-yl)-N-(4-(2-hydroxy-2-methylpropyl)phenyl)acrylamide]	103%	100%	61%			
O=C(/C=C/c1cnccc1-c1cnn(C2CC2)c1)Nc1ccc(CN2CC(F)(F)C2)cc1 [Example 376, (2E)-3-(4-(1-Cyclopropyl-1H-pyrazol-4-yl)pyridin-3-yl)-N-(4-((3,3-difluoroazetidin-1-yl)methyl)phenyl)acrylamide hemifumarate]				100%	99%	70%
Cn1cc(-c2ccncc2/C=C/C(=O)Nc2ccc3c(c2)CCN(CC(F)(F)F)C3)cn1 [Example 277, (2E)-3-(4-(1-methyl-1H-pyrazol-4-yl)pyridin-3-yl)-N′-(2-(2,2,2-trifluoroethyl)-1,2,3,4-tetrahydroisoquinolin-6-yl)acrylamide]	101%	98%	65%			
O=C(/C=C/c1cnccc1-c1cnn(C2CC2)c1)Nc1ccc(COC(F)F)cc1 [Example 292, (2E)-3-(4-(1-Cyclopropyl-1H-pyrazol-4-yl)pyridin-3-yl)-N-(4-((difluoromethoxy)methyl)phenyl)acrylamide]	93%	97%	52%			
O=C(/C=C/c1cnccc1-c1cnn(C2CC2)c1)Nc1ccc2c(c1)CN(C(=O)C(F)(F)F)CC2 [Example 248, (2E)-3-(4-(1-Cyclopropyl-1H-pyrazol-4-yl)pyridin-3-yl)-N-(2-(trifluoroacetyl)-1,2,3,4-tetrahydroisoquinolin-7-yl)acrylamide]	98%	98%	57%			
Cn1cc(-c2ccc(NC(=O)/C=C/c3cnccc3-c3cnn(C4CC4)c3)cc2)cn1 [Example 281, (2E)-3-(4-(1-cyclopropyl-1H-pyrazol-4-yl)pyridin-3-yl)-N-(4-(1-methyl-1H-pyrazol-4-yl)phenyl)acrylamide]	97%	92%	58%			
Cn1cc(-c2ccncc2/C=C/C(=O)Nc2ccc3c(c2)OCC3)cn1 [Example 116, (2E)-N-(2,3-dihydro-1-benzofuran-6-yl)-3-(4-(1-methyl-1H-pyrazol-4-yl)pyridin-3-yl)acrylamide]	94%	100%	55%			
Cn1cc(-c2ccncc2/C=C/C(=O)Nc2ccc3c(c2)CCO3)cn1 [Example 172, (2E)-N-(2,3-dihydro-1-benzofuran-5-yl)-3-(4-(1-methyl-1H-pyrazol-4-yl)pyridin-3-yl)acrylamide]	95%	96%	55%			
CC1CN(Cc2ccc(NC(=O)/C=C/c3cnccc3-c3cnn(C4CC4)c3)cc2)C1 [Example 322, (2E)-3-(4-(1-cyclopropyl-1H-pyrazol-4-yl)pyridin-3-yl)-N-(4-((3-methylazetidin-1-yl)methyl)phenyl)acrylamide]	97%	102%	55%			
Cn1cc(-c2ccncc2/C=C/C(=O)Nc2ccc(CNCC(F)(F)C(F)(F)F)cc2)cn1 [Example 73, (2E)-3-(4-(1-methyl-1H-pyrazol-4-yl)pyridin-3-yl)-N-(4-(((2,2,3,3,3-pentafluoropropyl)amino)methyl)phenyl)acrylamide]	99%	101%	56%			
O=C(/C=C/c1cnccc1-c1cnn(C2CC2)c1)Nc1ccc(CN2CC3(COC3)C2)cc1 [Example 308, (2E)-3-(4-(1-cyclopropyl-1H-pyrazol-4-yl)pyridin-3-yl)-N-(4-(2-oxa-6-azaspiro [3.3]hept-6-ylmethyl)phenyl)acrylamide]	98%	110%	56%			
